Test results as given in patent US11098045B2, “Haloallylamine indole and azaindole derivative inhibitors of lysyl oxidases and uses thereof” (PHARMAXIS LTD., priority 2016, dated 2021).
Counter-ions that a name gives are not always drawn.

Columns and labels:
[1] = system: Myocardial infarction induced fibrosis; test: Myocardial infarction induced fibrosis model; format: in vivo, mouse; settings: mice, 0.1-100 mg/Kg once a day by oral gavage; FIG. 5
Description: Inhibition of Myocardial Infarction Induced Fibrosis
Carotic ligation is a widely accepted experimental model to induce cardiac fibrosis and to determine the anti-fibrotic activity of therapeutic agents.
In mice, the chest is opened via a left thoracotomy. The left coronary artery is identified visually using a stereo microscope, and a 7-0 suture is placed around the artery 1-2 mm below the left auricle. Permanent occlusion of the left coronary artery resulted from its ligation with the suture. Myocardial ischemia was confirmed by pallor in heart color and ST-segment elevation. (see Parajuli et al. Phosphatase PTEN is critically involved in post-myocardial infarction remodeling through the Akt/interleukin-10 signaling pathway Basic Res Cardiol (2012) 107:248).
Mice were subjected to sham or carotic ligation surgery. At 24 hrs post-surgery, echocardiography was performed on the mice. Mice were treated with compound 25 0.1-100 mg/Kg once a day for 21 (7 days after carotic ligation) or 28 days or saline as vehicle controls by oral gavage. At the end of the experiment, echocardiography was repeated to assess left ventricular function and remodeling. Then mice were euthanized for heart collection. Each heart was photographed and fixed with 10% formalin. Hearts were sectioned for Masson's trichrome stain to measure fibrosis (See FIG. 5).

[2] = system: CCl4 induced liver fibrosis; test: CCl4 induced liver fibrosis model; format: in vivo, rat; settings: rats, oral CCl4 for 6 weeks; 0.1-100 mg/Kg; compared with vehicle-treated group
Procedure: Inhibition of CCl4 Induced Liver Fibrosis
An analysis of the use of LOXL2 inhibitors to treat inflammatory/fibrotic diseases is performed through the use of a CCl4 induced liver fibrosis model. Liver injury is frequently followed by complete parenchymal regeneration due to regenerative potency of hepatocytes. Continuous liver injury due to the administration of CCl4 leads to extracellular matrix accumulation, accompanied by recurrent hepatocyte necrosis, inflammation, and regenerative processes, causing liver fibrosis and consequently liver cirrhosis (see Natsume, M., et al., Attenuated liver fibrosis and depressed serum albumin levels in carbon tetrachloride-treated IL-6-deficient mice. J. Leukoc. Biol., 1999, 66, 601-608 also See Yao, Q. Y., et al. Inhibition by curcumin of multiple sites of the transforming growth factor-beta1 signalling pathway ameliorates the progression of liver fibrosis induced by carbon tetrachloride in rats. BMC Complement Altern Med. 2012 Sep. 16; 12(1):156.)
Rats are administered orally with CCl4 at a concentration of 0.25 μL/g in olive oil, 3 times per week for 6 weeks. Compound 25 is given 0.1-100 mg/Kg throughout the period of the experimental procedure or only 3 weeks after CCl4 administration and then throughout the entire study. […]

[3] = system: Streptozotocin induced diabetic nephropathy; test: Streptozotocin induced diabetic nephropathy model; format: in vivo, mouse; settings: diabetic eNOS knockout mice, 24 weeks treatment, 0.1-100 mg/Kg
Description: Inhibition of Streptozotocin Induced Diabetic Nephropathy
Streptozotocin (STZ)-induced diabetic nephropathy is commonly used for creating rodent models of type 1 diabetes which develop renal injury, due to pancreatic cell damage with similarities to human diabetic nephropathy.
This model can be established for investigating anti-fibrotic effects of compounds in the development of kidney fibrosis.
Diabetes is induced in eNOS knockout mice on C57BL/6 background by intraperitoneal STZ injection (55 mg/kg in 0.1 M citrate buffer) in mice of 6-9 weeks of age (see Huang C et al, Blockade of KCa3.1 ameliorates renal fibrosis through a TGF-b1/Smad pathway in diabetic mice. Diabetes, 2013 62(8):2923-2934).
Blood sugar level (BSL) is determined by tail vein blood. Mice with BSL>16 mmol/L two weeks post STZ injection are considered diabetic. Treatment with Compound 12 is carried out for 24 weeks from diagnosis of diabetes at a dose of 0.1-100 mg/Kg.

[4] = system: Bleomycin induced lung fibrosis; test: Bleomycin induced lung fibrosis model; format: in vivo; settings: mouse, intranasal bleomycin; 15 mg/kg
Procedure: Inhibition of Bleomycin Induced Lung Fibrosis
Bleomycin induced lung fibrosis in rodents is a widely accepted experimental model to determine the anti-fibrotic activity of therapeutic agents.
Fibrosis is induced by intranasal administered of bleomycin sulphate at a dose of 0.05 U/mouse in a total volume of 50 uL PBS (see Corbel, M., et al Inhibition of bleomycin-induced pulmonary fibrosis in mice by the matrix metalloproteinase inhibitor batimastat J Pathol. 2001 April; 193(4):538-45.) Compound 12 is given 0.1-100 mg/Kg throughout the period of the experimental procedure or 7 days after bleomycin administration and then throughout the entire study.
Formalin fixed lungs sections stained with haematoxylin and eosin are assessed for fibrosis as per the scale outlined by Ashcroft et al (Simple method of estimating severity of pulmonary fibrosis on a numerical scale J Clin Pathol 1988; 41:467-470).

[5] = system: Fibroblasts from confirmed cases of IPF; test: In vitro fibroblastic foci model of IPF, collagen cross-link formation; format: cell-based; settings: six weeks culture with TGF-β1; FIGS. 7a and 7b
Description: Reduction of Collagen Cross-Link Formation in an In Vitro Fibroblastic Foci Model of IPF
The lung tissue of patients with idiopathic pulmonary fibrosis (IPF) is characterised by dense collections of myofibroblasts and extracellular matrix (ECM) termed ‘fibroblastic foci’. Using a novel in vitro model of fibroblastic foci (Jones et al., AJRCCM 191; 2015:A4912) the formation of lysyl oxidase (LOX) mediated collagen cross-links and the effects of the non-selective LOX inhibitor β-aminopropionitrile (BAPN) as well lysyl oxidase like-2 (LOXL2)-selective inhibitors were investigated.
Cultures of primary fibroblasts were grown out from clinical diagnostic biopsies of fibrotic lung and stored in liquid nitrogen. […]
To quantify collagen cross-links (Robins Biochem Soc Trans 2007; 35(5): 849-852; Saito et al Anal. Biochem. 1997; 253: 26-32; Sims, Avery & Bailey Methods in Molecular Biology 2000; vol 139: 11-26), cultures were treated with potassium borohydride to stabilise the reducible immature cross-links, and hydrolysed in 6N HCl at 100° C. for 16 hr. Total collagen content was assessed by hydroxyproline assay. Immature cross-links were assessed by LC/MS/MS and mature pyridinoline cross-links by ELISA. Cross-link data is expressed as moles of cross-link per mole collagen. […]

[6] = system: Streptozotocin and high fat diet induced liver fibrosis; test: Streptozotocin and high fat diet induced liver fibrosis (STAM model); format: in vivo, mouse; settings: STAM mice, daily oral gavage 10-30 mg/kg; FIG. 6
Procedure: Streptozotocin and High Fat Diet Induced Liver Fibrosis
High fat/carbohydrate diet induced liver fibrosis is the most common reason for liver dysfunction and ultimately liver failure. NASH is induced in male mice by a single subcutaneous injection of 200 μg streptozotocin solution 2 days after birth and feeding with high fat diet after 4 weeks of age (STAM™ model).
LOXL2 inhibitor compound 112 was administered by daily oral gavage at doses between 10-30 mg/kg 8 weeks after streptozotocin application. Mice were sacrificed after NASH had been established and whole blood samples were taken via cardiac puncture. Liver samples were collected and washed with cold saline. Liver weight was measured. The left lateral, right and caudate lobes of livers were snap frozen in liquid nitrogen and stored at −80° C. For HE staining, sections were cut from paraffin blocks of liver tissue prefixed in Bouin's solution and stained with Lillie-Mayer's Hematoxylin and eosin solution. NAFLD Activity score (NAS) was calculated according to the criteria of Kleiner (Kleiner D E. et al., Design and validation of a histological scoring system for nonalcoholic fatty liver disease. Hepatology, 2005; 41:1313). To visualize collagen deposition, Bouin's fixed liver sections were stained using picro-Sirius red solution and the area of fibrosis was quantified (See FIG. 6).

Structure (SMILES): Cc1c(-c2cccc(S(=O)(=O)N(C)C)c2)c2ncccc2n1C/C(F)=C/CN [Compound 25, (Z)-3-(1-(4-amino-2-fluorobut-2-en-1-yl)-2-methyl-1H-pyrrolo[3,2-b]pyridin-3-yl)-N,N-dimethylbenzenesulfonamide Dihydrochloride]
- fibrosis after ligation (Masson's trichrome stain) [1]: reduce fibrosis
- reduction of fibrosis in the liver by sirius red staining with quantification [2]: up to 50%

Structure (SMILES): CCOC(=O)c1ccc2c(c1)c(-c1cccc(S(=O)(=O)N(C)C)c1)c(C)n2C/C(F)=C/CN [Compound 12, (Z)-ethyl 1-(4-amino-2-fluorobut-2-en-1-yl)-3-(3-(N,N-dimethylsulfamoyl)phenyl)-2-methyl-1H-indole-5-carboxylate]
- kidney function by albumin/creatinine ratio quantification [3]: significant improvement in kidney function
- reduction of fibrosis by Masson's Trichrome staining ([3]; compared with vehicle-treated group): up to 50%
- Ashcroft score in the lungs [4]: significantly reduced this score

Structure (SMILES): N#CCCN [BAPN, β-aminopropionitrile, reference compound]
- collagen cross-link formation (immature and mature cross-links) [5]: reduced cross-link formation in a concentration dependent manner

Structure (SMILES): Cc1ccc2c(n1)c(-c1cccc(S(C)(=O)=O)c1)c(C)n2C/C(F)=C/CN [Compound 112, (Z)-4-(2,5-dimethyl-3-(3-(methylsulfonyl)phenyl)-1H-pyrrolo[3,2-b]pyridin-1-yl)-3-fluorobut-2-en-1-amine Dihydrochloride]
- collagen cross-link formation (immature and mature cross-links) [5]: reduced cross-link formation in a concentration dependent manner
- liver fibrosis (picro-Sirius red area of fibrosis) [6]: reduce liver fibrosis
